Some test systems named below: CCRF-CEM leukemia; HCT-116 colon; HOP-62 NSCLC; IGROV1 ovarian; MALME-3M melanoma; MCF7 breast; NCI-H23 lung; PC-3 prostate; RXF 393 renal; SK-MEL-28 melanoma.
Holding throughout (experiment): NCI-60 cell line screen, 48 h

Values joined by “and” are separate entries in the source; they are usually repeats but may differ in a detail not shown here. Equal values may be shown once.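 Cells were grown in 96-well plates and exposed to each compound for 48 hours at five concentrations; endpoints were interpolated linearly between bracketing concentrations, or set to the highest concentration if not reached. At the GI50, growth is halved. TGI marks complete inhibition of growth.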 Bounds are passed on as bounds.

Take `COc1ccc([I+]c2ccc(OC)cc2)cc1`: the GI50 with CCRF-CEM leukemia is 4.98 µM; with HCT-116 colon, 2.83 µM; with HOP-62 NSCLC, 3.34 µM; with IGROV1 ovarian, 15.7 µM; in the experiment with MALME-3M melanoma, 13.8 µM; in the experiment with MCF7 breast, 7.26 µM. The GI50 in the experiment with NCI-H23 lung is 4.85 µM; with PC-3 prostate, 15.7 µM; in the experiment with RXF 393 renal, 27.3 µM; with SK-MEL-28 melanoma it was 20.6 µM. For the same compound, the TGI in the experiment on CCRF-CEM leukemia is above 100 µM; with HCT-116 colon it was above 100 µM; in the experiment with HOP-62 NSCLC, > 73.2 µM and 92 µM; with IGROV1 ovarian it was above 100 µM; with MALME-3M melanoma, above 100 µM; with MCF7 breast, above 100 µM. The TGI in the experiment with NCI-H23 lung, in the experiment with PC-3 prostate, in the experiment on RXF 393 renal and with SK-MEL-28 melanoma was above 100 µM each time.

Take `NC(=S)N1N=C2c3ccccc3CCC[C@H]2[C@@H]1c1ccccc1`: the TGI in the experiment on CCRF-CEM leukemia is 24.3 µM; in the experiment with HCT-116 colon, 12.7 µM; with HOP-62 NSCLC, 19.2 µM; in the experiment with IGROV1 ovarian, 25 µM; in the experiment on MALME-3M melanoma, 21.5 µM; in the experiment on MCF7 breast, 25.3 µM. For the same compound, the TGI came to 27.8 µM in the experiment on NCI-H23 lung, 18.3 µM in the experiment with PC-3 prostate, 6.68 µM with RXF 393 renal and 32.6 µM with SK-MEL-28 melanoma.

Regarding `C=C1CCOC2(C(O)C(C)(O)CO)NC(=O)C1(O)NC2=O` (stereo not given), the TGI with CCRF-CEM leukemia, in the experiment on HCT-116 colon, with HOP-62 NSCLC, in the experiment with IGROV1 ovarian, with MALME-3M melanoma and with MCF7 breast was above 100 µM throughout. For the same compound, the TGI in the experiment with NCI-H23 lung, in the experiment on PC-3 prostate, in the experiment with RXF 393 renal and in the experiment on SK-MEL-28 melanoma was above 100 µM in each case.

For `O=C(O)c1nn(-c2ccccc2)nc1-c1nn(-c2ccccc2)nc1C(=O)O`, the TGI in the experiment on CCRF-CEM leukemia, in the experiment on HCT-116 colon, with HOP-62 NSCLC, with IGROV1 ovarian, in the experiment on MALME-3M melanoma and in the experiment with MCF7 breast was above 100 µM throughout. Further, the TGI with NCI-H23 lung, in the experiment with PC-3 prostate, with RXF 393 renal and with SK-MEL-28 melanoma was above 100 µM each time.

As for `CCCN(CCC)C(=O)c1c(N2CCN(C)CC2)c2cccnc2n2c(C)cnc12`, the TGI in the experiment on CCRF-CEM leukemia, in the experiment with HCT-116 colon, in the experiment on HOP-62 NSCLC, with IGROV1 ovarian, in the experiment on MALME-3M melanoma and with MCF7 breast was above 100 µM throughout. In addition, the TGI in the experiment on NCI-H23 lung, in the experiment with PC-3 prostate, with RXF 393 renal and in the experiment with SK-MEL-28 melanoma was above 100 µM each time.

Take `COc1cc2c[n+](C)c3c4cc(OC)c(OCc5ccccc5)cc4c(OCc4ccccc4)cc3c2cc1OC`: the TGI in the experiment with CCRF-CEM leukemia turned out to be 72.4 µM; in the experiment with HCT-116 colon, 22 µM; in the experiment on HOP-62 NSCLC it was 39.3 µM; in the experiment with IGROV1 ovarian, 13.2 µM; in the experiment with MALME-3M melanoma, 10.7 µM; in the experiment with MCF7 breast, 21.9 µM. Also, the TGI was 20.5 µM in the experiment with NCI-H23 lung, 11.1 µM in the experiment on PC-3 prostate, 41.1 µM in the experiment with RXF 393 renal and 20.2 µM in the experiment on SK-MEL-28 melanoma.

Consider `C(=C/c1nnnn1-c1ccccc1)/Nc1ccccc1`, for which the TGI in the experiment with CCRF-CEM leukemia was above 100 µM; in the experiment with HCT-116 colon, 95.7 µM; with HOP-62 NSCLC it was 81.6 µM; with IGROV1 ovarian it was above 100 µM; with MALME-3M melanoma, above 100 µM; in the experiment on MCF7 breast, 64.8 µM. Moreover, the TGI in the experiment on NCI-H23 lung was 79.2 µM; in the experiment on PC-3 prostate it was above 100 µM; in the experiment with RXF 393 renal, above 100 µM; in the experiment with SK-MEL-28 melanoma it was above 100 µM.

On to `COc1ccc2[nH]c3c(c2c1)CC(=O)N1CCC[C@H](C1)CC31OCCCO1`, for which the TGI with CCRF-CEM leukemia, in the experiment on HCT-116 colon, in the experiment on HOP-62 NSCLC, in the experiment on IGROV1 ovarian, with MALME-3M melanoma and in the experiment on MCF7 breast was above 100 µM throughout. Besides, the TGI with NCI-H23 lung, in the experiment with PC-3 prostate, in the experiment with RXF 393 renal and in the experiment on SK-MEL-28 melanoma was above 100 µM in each case.

Take `C(=N\NC1=NCCN1)/c1ccc2ccccc2c1`: the TGI with CCRF-CEM leukemia came out at 41.8 µM; in the experiment with HCT-116 colon, 28.9 µM; in the experiment on HOP-62 NSCLC, 31 µM; in the experiment with IGROV1 ovarian, 24.6 µM; in the experiment on MALME-3M melanoma, 28.3 µM; with MCF7 breast, 32.3 µM. Also, the TGI is 51.1 µM in the experiment with NCI-H23 lung, 28.5 µM in the experiment on PC-3 prostate, 34.6 µM with RXF 393 renal and 28.7 µM in the experiment with SK-MEL-28 melanoma.

As for `COC(=O)c1ccccc1C1CN=NC12Cc1ccc3c(c1C2=O)CCC3` (stereo not given), the TGI in the experiment with CCRF-CEM leukemia, with HCT-116 colon, in the experiment with HOP-62 NSCLC, in the experiment with IGROV1 ovarian, in the experiment on MALME-3M melanoma and with MCF7 breast was above 100 µM in each case. Further, the TGI with NCI-H23 lung, in the experiment on PC-3 prostate, in the experiment with RXF 393 renal and with SK-MEL-28 melanoma was above 100 µM throughout.

With `CCC(Nc1ncnc2nc[nH]c12)C(=O)O` (stereo not given), the TGI with CCRF-CEM leukemia, with HCT-116 colon, in the experiment on HOP-62 NSCLC, in the experiment on IGROV1 ovarian, in the experiment on MALME-3M melanoma and with MCF7 breast was above 100 µM in each case. The TGI in the experiment on NCI-H23 lung, in the experiment on PC-3 prostate, in the experiment with RXF 393 renal and with SK-MEL-28 melanoma was above 100 µM each time.

As for `CCCCCCCCCCCCOC1C(COCCN2CCCCC2)OC2OC(C)(C)OC21` (stereo not given), the TGI is 2.99 µM in the experiment on CCRF-CEM leukemia; 3.07 µM with HCT-116 colon; 3.25 µM in the experiment with HOP-62 NSCLC; 3.26 µM with IGROV1 ovarian; 3.28 µM in the experiment with MALME-3M melanoma; 3.23 µM in the experiment on MCF7 breast. The TGI is 6.06 µM in the experiment with NCI-H23 lung, 3.8 µM in the experiment with PC-3 prostate, 3.4 µM in the experiment with RXF 393 renal and 3.25 µM in the experiment with SK-MEL-28 melanoma.

As to `Cc1[nH]c2nccn2c(=O)c1CCO`, the TGI in the experiment with CCRF-CEM leukemia, in the experiment with HCT-116 colon, in the experiment on HOP-62 NSCLC, with IGROV1 ovarian, in the experiment on MALME-3M melanoma and with MCF7 breast was above 10 µM each time. The TGI in the experiment with NCI-H23 lung, in the experiment on PC-3 prostate, in the experiment with RXF 393 renal and with SK-MEL-28 melanoma was above 10 µM in each case.

Turning to `CCN(CC)CCC1CCCCN1CC(=O)N1c2cc(Cl)ccc2NC(=O)CC1C` (stereo not given), the TGI with CCRF-CEM leukemia, with HCT-116 colon, in the experiment with HOP-62 NSCLC, in the experiment on IGROV1 ovarian, in the experiment on MALME-3M melanoma and with MCF7 breast was above 100 µM each time. Moreover, the TGI in the experiment on NCI-H23 lung, with PC-3 prostate, in the experiment with RXF 393 renal and with SK-MEL-28 melanoma was above 100 µM in each case.

For the compound `COc1cc(/C=C/C(=N\NC(N)=S)c2sc(NNC(C)=O)nc2C)ccc1O`, the TGI in the experiment with CCRF-CEM leukemia, in the experiment on HCT-116 colon, in the experiment on HOP-62 NSCLC, with IGROV1 ovarian, in the experiment on MALME-3M melanoma and in the experiment on MCF7 breast was above 100 µM in each case. For the same compound, the TGI with NCI-H23 lung, in the experiment on PC-3 prostate, in the experiment on RXF 393 renal and in the experiment with SK-MEL-28 melanoma was above 100 µM each time.

Values taken from PubChem BioAssay (NCI).
